# In the supplement of paper PMC4862054:
# Key:
# Details in all cases: incubation time: 72 h
# [1] = system: HCC1143; experiment: drug sensitivity score (DSS), CellTox Green (DSS (AUC-based score)); higher = stronger drug effect (viability inhibition or cytotoxicity); extreme values may be limits of the assay
# Outline: (§1)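 A drug sensitivity score was derived from the area under each fitted dose-response curve. Breast cancer cells (20 µl suspension) were seeded onto compound in 384-well plates, using 5 concentrations 10-fold apart over a compound-specific 10,000-fold range, and incubated 72 h. Readouts were CellTox Green fluorescence and then CellTiter-Glo luminescence, with every plate normalised to 0.1 % DMSO and a positive kill control.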
# [2] = system: CAL-51; experiment: as above
# Outline: as §1
# [3] = system: MDA-MB-453; experiment: as above
# Outline: as §1
# [4] = system: CAL-120; experiment: normalised viability (% of control), CellTiter-Blue; higher = more viable cells (about 100 = DMSO control)
# Outline: (§2)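 Normalised viability is given for a single listed concentration of the series. In 384-well plates, breast cancer cell lines were incubated 72 h with compound, then read with CellTiter-Blue (2 h, 37 °C) at 560/590 nm. Per-plate scaling set vehicle to 100 and a positive kill control to 0, with Z'-factor quality control.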
# [5] = system: BT-549; experiment: as above
# Outline: as §2
# [6] = system: HCC1937; experiment: as above
# Outline: as §2
# [7] = system: HDQ-P1; experiment: as above
# Outline: as §2
# [8] = system: HCC1143; experiment: as above
# Outline: as §2
# [9] = system: HCC1599; experiment: as above
# Outline: as §2
# [10] = system: BT-474; experiment: as above
# Outline: as §2
# [11] = system: CAL-85-1; experiment: as above
# Outline: as §2
# [12] = system: DU-4475; experiment: as above
# Outline: as §2
# [13] = system: CAL-148; experiment: as above
# Outline: as §2
# [14] = system: SK-BR-3; experiment: as above
# Outline: as §2
# [15] = system: CAL-51; experiment: as above
# Outline: as §2
# [16] = system: Hs578T; experiment: as above
# Outline: as §2
# [17] = system: MDA-MB-453; experiment: as above
# Outline: as §2
# [18] = system: MDA-MB-436; experiment: as above
# Outline: as §2
# [19] = system: MFM-223; experiment: as above
# Outline: as §2
# [20] = system: MDA-MB-231; experiment: as above
# Outline: as §2
# [21] = system: MDA-MB-468; experiment: as above
# Outline: as §2
# [22] = system: CAL-120; experiment: as above; remark: listed apart in the source
# Outline: as §2
# [23] = system: DU-4475; experiment: as above; remark: listed apart in the source
# Outline: as §2
# [24] = system: MDA-MB-453; experiment: as above; remark: listed apart in the source
# Outline: as §2
compound,measurement,setting,value
Cc1c(Cn2c(C)nc3c(C(=O)O)cc(N4CCOCC4)cc32)cccc1C(F)(F)F,drug sensitivity score,[1],0
same,drug sensitivity score,[2],0
same,drug sensitivity score,[3],0
Cc1cccc(-c2nn3c(c2-c2ccnc4ccc(C(N)=O)cc24)CCC3)n1,normalised viability,[4]; 1 nM,97.9%
same,normalised viability,[4]; 100 nM,92.8%
same,normalised viability,[4]; 1000 nM,106%
same,normalised viability,[5]; 1 nM,93.8%
same,normalised viability,[5]; 100 nM,98.3%
same,normalised viability,[5]; 1000 nM,109%
same,normalised viability,[6]; 1 nM,157%
same,normalised viability,[6]; 100 nM,108%
same,normalised viability,[6]; 1000 nM,126%
same,normalised viability,[7]; 0.3 nM,120%
same,normalised viability,[7]; 3 nM,117%
same,normalised viability,[7]; 10 nM,134%
same,normalised viability,[8]; 1 nM,98.3%
same,normalised viability,[8]; 100 nM,91%
same,normalised viability,[8]; 1000 nM,91.1%
same,normalised viability,[9]; 1 nM,86.8%
same,normalised viability,[9]; 100 nM,91.6%
same,normalised viability,[9]; 1000 nM,96.8%
same,normalised viability,[10]; 1 nM,120%
same,normalised viability,[10]; 100 nM,110%
same,normalised viability,[10]; 1000 nM,130%
same,normalised viability,[11]; 0.3 nM,99.3%
same,normalised viability,[11]; 3 nM,94.2%
same,normalised viability,[11]; 10 nM,101%
same,normalised viability,[12]; 0.3 nM,113%
same,normalised viability,[12]; 3 nM,100%
same,normalised viability,[12]; 10 nM,115%
same,normalised viability,[13]; 0.3 nM,93.4%
same,normalised viability,[13]; 3 nM,95.2%
same,normalised viability,[13]; 10 nM,92.9%
same,normalised viability,[14]; 1 nM,116%
same,normalised viability,[14]; 100 nM,101%
same,normalised viability,[14]; 1000 nM,103%
same,normalised viability,[15]; 0.3 nM,100%
same,normalised viability,[15]; 3 nM,93.8%
same,normalised viability,[15]; 10 nM,96.5%
same,normalised viability,[16]; 1 nM,106%
same,normalised viability,[16]; 100 nM,112%
same,normalised viability,[16]; 1000 nM,89.9%
same,normalised viability,[17]; 0.3 nM,122%
same,normalised viability,[17]; 3 nM,108%
same,normalised viability,[17]; 10 nM,97.2%
same,normalised viability,[18]; 1 nM,120%
same,normalised viability,[18]; 100 nM,96.9%
same,normalised viability,[18]; 1000 nM,128%
same,normalised viability,[19]; 1 nM,96.6%
same,normalised viability,[19]; 100 nM,96.5%
same,normalised viability,[19]; 1000 nM,93.6%
same,normalised viability,[20]; 1 nM,109%
same,normalised viability,[20]; 100 nM,128%
same,normalised viability,[20]; 1000 nM,111%
same,normalised viability,[21]; 1 nM,106%
same,normalised viability,[21]; 100 nM,120%
same,normalised viability,[21]; 1000 nM,105%
same,normalised viability,[22]; 10 nM,95.1%
same,normalised viability,[23]; 1 nM,90.5%
same,normalised viability,[24]; 1 nM,112%
Cn1cc(CNCC2CCN(c3ncc(C(=O)NO)cn3)CC2)c2ccccc21,normalised viability,[4]; 1 nM,88.7%
same,normalised viability,[4]; 100 nM,12.5%
same,normalised viability,[4]; 1000 nM,3.89%
same,normalised viability,[5]; 1 nM,78%
same,normalised viability,[5]; 100 nM,75.1%
same,normalised viability,[5]; 1000 nM,12%
same,normalised viability,[6]; 1 nM,69.2%
same,normalised viability,[6]; 100 nM,31.8%
same,normalised viability,[6]; 1000 nM,14.7%
same,normalised viability,[7]; 0.3 nM,104%
same,normalised viability,[7]; 3 nM,88.9%
same,normalised viability,[7]; 10 nM,88.6%
same,normalised viability,[8]; 1 nM,83%
same,normalised viability,[8]; 100 nM,23.6%
same,normalised viability,[8]; 1000 nM,11.1%
same,normalised viability,[9]; 1 nM,101%
same,normalised viability,[9]; 100 nM,28%
same,normalised viability,[9]; 1000 nM,14.5%
same,normalised viability,[10]; 1 nM,97.9%
same,normalised viability,[10]; 100 nM,8.46%
same,normalised viability,[10]; 1000 nM,7.06%
same,normalised viability,[11]; 0.3 nM,90%
same,normalised viability,[11]; 3 nM,79.9%
same,normalised viability,[11]; 10 nM,65.1%
same,normalised viability,[12]; 0.3 nM,88.5%
same,normalised viability,[12]; 3 nM,93.7%
same,normalised viability,[12]; 10 nM,60%
same,normalised viability,[13]; 0.3 nM,95.6%
same,normalised viability,[13]; 3 nM,89.2%
same,normalised viability,[13]; 10 nM,53.9%
same,normalised viability,[14]; 1 nM,86.2%
same,normalised viability,[14]; 100 nM,8.01%
same,normalised viability,[14]; 1000 nM,2.99%
same,normalised viability,[15]; 0.3 nM,116%
same,normalised viability,[15]; 3 nM,115%
same,normalised viability,[15]; 10 nM,97.2%
same,normalised viability,[16]; 1 nM,128%
same,normalised viability,[16]; 100 nM,39.3%
same,normalised viability,[16]; 1000 nM,5.1%
same,normalised viability,[17]; 0.3 nM,113%
same,normalised viability,[17]; 3 nM,63.6%
same,normalised viability,[17]; 10 nM,25.8%
same,normalised viability,[18]; 1 nM,94.5%
same,normalised viability,[18]; 100 nM,80.6%
same,normalised viability,[18]; 1000 nM,17.7%
same,normalised viability,[19]; 1 nM,88.9%
same,normalised viability,[19]; 100 nM,28.5%
same,normalised viability,[19]; 1000 nM,8.06%
same,normalised viability,[20]; 1 nM,103%
same,normalised viability,[20]; 100 nM,17.7%
same,normalised viability,[20]; 1000 nM,5.23%
same,normalised viability,[21]; 1 nM,107%
same,normalised viability,[21]; 100 nM,38%
same,normalised viability,[21]; 1000 nM,14.5%
same,normalised viability,[22]; 10 nM,58.3%
same,normalised viability,[23]; 1 nM,89%
same,normalised viability,[24]; 1 nM,86.3%
O=C(NC[C@H](O)CO)c1ccncc1Nc1ccc(I)cc1F,normalised viability,[4]; 10 nM,85.1%
same,normalised viability,[4]; 1000 nM,55.7%
same,normalised viability,[4]; 10000 nM,43.1%
same,normalised viability,[5]; 10 nM,93.2%
same,normalised viability,[5]; 1000 nM,88.6%
same,normalised viability,[5]; 10000 nM,88%
same,normalised viability,[6]; 10 nM,94.6%
same,normalised viability,[6]; 1000 nM,87.8%
same,normalised viability,[6]; 10000 nM,79.8%
same,normalised viability,[7]; 3 nM,107%
same,normalised viability,[7]; 30 nM,97.8%
same,normalised viability,[7]; 100 nM,91.9%
same,normalised viability,[8]; 10 nM,69.5%
same,normalised viability,[8]; 1000 nM,55.4%
same,normalised viability,[8]; 10000 nM,50.1%
same,normalised viability,[9]; 10 nM,108%
same,normalised viability,[9]; 1000 nM,78%
same,normalised viability,[9]; 10000 nM,67.2%
same,normalised viability,[10]; 10 nM,107%
same,normalised viability,[10]; 1000 nM,104%
same,normalised viability,[10]; 10000 nM,114%
same,normalised viability,[11]; 3 nM,79.1%
same,normalised viability,[11]; 30 nM,83.4%
same,normalised viability,[11]; 100 nM,85.7%
same,normalised viability,[12]; 3 nM,79.2%
same,normalised viability,[12]; 30 nM,16.4%
same,normalised viability,[12]; 100 nM,1.76%
same,normalised viability,[13]; 3 nM,86%
same,normalised viability,[13]; 30 nM,86.4%
same,normalised viability,[13]; 100 nM,82.7%
same,normalised viability,[14]; 10 nM,98.4%
same,normalised viability,[14]; 1000 nM,102%
same,normalised viability,[14]; 10000 nM,55.5%
same,normalised viability,[15]; 3 nM,111%
same,normalised viability,[15]; 30 nM,88.5%
same,normalised viability,[15]; 100 nM,85.8%
same,normalised viability,[16]; 10 nM,114%
same,normalised viability,[16]; 1000 nM,95.3%
same,normalised viability,[16]; 10000 nM,67.4%
same,normalised viability,[17]; 3 nM,99.6%
same,normalised viability,[17]; 30 nM,89.2%
same,normalised viability,[17]; 100 nM,90.9%
same,normalised viability,[18]; 10 nM,92.2%
same,normalised viability,[18]; 1000 nM,85.6%
same,normalised viability,[18]; 10000 nM,79.2%
same,normalised viability,[19]; 10 nM,90.2%
same,normalised viability,[19]; 1000 nM,86%
same,normalised viability,[19]; 10000 nM,52.2%
same,normalised viability,[20]; 10 nM,75.5%
same,normalised viability,[20]; 1000 nM,31.7%
same,normalised viability,[20]; 10000 nM,31.4%
same,normalised viability,[21]; 10 nM,97.7%
same,normalised viability,[21]; 1000 nM,85.7%
same,normalised viability,[21]; 10000 nM,60.7%
same,normalised viability,[22]; 100 nM,85.1%
same,normalised viability,[23]; 10 nM,63.7%
same,normalised viability,[24]; 10 nM,88.7%
